The numbers were not newly measured in PubChem BioAssay AID1259410 (Chemical Carcinogenesis Research Information System (CCRIS), 2018), which cites them from elsewhere.

The structures appear in SMILES notation.

This data set concerns rodent tumor promotion studies, tumor incidence. Nature of the data set: CCRIS tumor promotion studies.

On to `C1COCCO1`, for which the outcome (Carcinogen: 7,12-DIMETHYLBENZ(A)ANTHRACENE, Doses [Carcinogen]: TOP, Route [Carcinogen]: DERMAL, Route [Promoter]: DERMAL, Species: MOUSE, Strain/Sex: MALE,FEMALE) was “integumentary system (skin)”.
Take `C#C[C@]1(O)CC[C@H]2[C@@H]3CCc4cc(OC)ccc4[C@H]3CC[C@@]21C`: the outcome (Carcinogen: DIETHYLNITROSAMINE, 55-18-5, Doses [Carcinogen]: 20 MG/KG IN 0.85% SALINE ONCE PRECEDED 24 HR BY 2/3 PARTIAL HEPATECTOMY, Doses [Promoter]: 0, 0.1, 0.5 PPM IN DIET FOR 12 MO BEGINNING 24 HR POST CARCINOGEN (STUDY DURATION: 12 MO), Doses [Promoter]: 0, 0.1, 0.5 PPM IN DIET FOR 12 MO BEGINNING 24 HR POST CARCINOGEN (STUDY DURATION: 12 MO), Route [Carcinogen]: INTRAPERITONEAL, Route [Promoter]: ORAL, Species: RAT, Strain/Sex: CD-1/FEMALE) is “liver: hepatocellular carcinoma”.
Consider `CCOC(N)=O`, for which, under “Carcinogen: 7,12-DIMETHYLBENZ(A)ANTHRACENE, 57-97-6, Doses [Carcinogen]: 51.2 UG IN 100 UG ACETONE ONCE, Doses [Promoter]: 0, 10% IN ACETONE 2/WK FOR 50 WK BEGINNING 2 WK POST CARCINOGEN DOSE (STUDY DURATION: 52 WK), Route [Carcinogen]: DERMAL, Route [Promoter]: DERMAL, Species: MOUSE, Strain/Sex: HR/HR/MALE,FEMALE”, the outcome is “skin: papilloma”.
In the case of `[O-][Br+2]([O-])O`, the outcome is, setting by setting: (Carcinogen: 7,12-Dimethylbenz[a]anthracene, 57-97-6, Doses [Carcinogen]: 20 nmole as a single topical application, Doses [Promoter]: 0, 40 mg/ml on skin for 51 wk (study duration: 51 wk), Route [Carcinogen]: Dermal, Route [Promoter]: Dermal, Species: Mouse, Strain/Sex: Sencar/Female (20/group)) “skin: negative as both a complete carcinogen and as a promoter”; (Carcinogen: N-ETHYL-N-HYDROXYETHYLNITROSAMINE, 13147-25-6, Doses [Carcinogen]: 500 PPM IN DRINKING WATER FOR 2 WK, Doses [Promoter]: 0, 500 PPM IN DRINKING WATER BEGINNING POST CARCINOGEN TREATMENT AND CONTINUING FOR 24 WK (STUDY DURATION: 26 WK), Route [Carcinogen]: ORAL, Route [Promoter]: ORAL, Species: RAT, Strain/Sex: F344/MALE) “kidney: tumors”; (Carcinogen: N-Ethyl-N-hydroxyethylnitrosamine, 13147-25-6, Doses [Carcinogen]: 0.05% in drinking water for 2 wk, Doses [Promoter]: 0, 500 ppm in drinking water beginning post carcinogen treatment and continuing for 30 wk (study duration: 32 wk), Route [Carcinogen]: Oral, Route [Promoter]: Oral, Species: Rat, Strain/Sex: F344/Female (15/group)) “kidney: renal cell tumors”; (Carcinogen: N-Ethyl-N-hydroxyethylnitrosamine, 13147-25-6, Doses [Carcinogen]: 500 ppm in drinking water for 2 wk, Doses [Promoter]: 0, 15, 30, 60, 125, 250, 500 ppm in drinking water beginning post carcinogen treatment and continuing for 24 wk (study d, Doses [Promoter]: 0, 15, 30, 60, 125, 250, 500 ppm in drinking water beginning post carcinogen treatment and continuing for 24 wk (study d, Route [Carcinogen]: Oral, Route [Promoter]: Oral, Species: Rat, Strain/Sex: F344/Male (15/group)) “kidney: renal cell tumors”.
Turning to `O=C1[C@H]2CC=CC[C@H]2C(=O)N1SC(Cl)(Cl)Cl`, the outcome (Carcinogen: DIETHYLNITROSAMINE, 55-18-5, N-METHYL-N-NITROSOUREA, 684-93-5, N-BIS(2-HYDROXYPROPYL)NITROSAMINE, 53609-64-6, Carcinogen: DIETHYLNITROSAMINE, 55-18-5, N-METHYL-N-NITROSOUREA, 684-93-5, N-BIS(2-HYDROXYPROPYL)NITROSAMINE, 53609-64-6, Doses [Carcinogen]: 100 MG/KG DEN ONCE THEN 20 MG/KG MNU 2/WK FOR 2 WK FOLLOWED BY 0.1% DHPN IN DRINKING WATER FOR 2 WK, Doses [Promoter]: 0, 4000 PPM IN DIET BEGINNING POST CARCINOGEN TREATMENT AND CONTINUING FOR 16 WK (STUDY DURATION: 20 WK), Route [Carcinogen]: INTRAPERITONEAL, INTRAPERITONEAL, ORAL, Route [Carcinogen]: INTRAPERITONEAL, INTRAPERITONEAL, ORAL, Route [Promoter]: ORAL, Species: RAT, Strain/Sex: F344/MALE) is “kidney: adenoma”.
As for `CCCCCCCCCCC(C)C1(CCC(=O)OC2C(C)C3(O)C(C=C(CO)CC4(O)C(=O)C(C)=CC43)C3C(C)(C)C23OC(C)=O)OCC(C)(C)N1[O]` (centres undefined), the outcome (Carcinogen: 7,12-DIMETHYLBENZ[A]ANTHRACENE, 57-97-6, Doses [Carcinogen]: 100 NMOL ONCE, Doses [Promoter]: 0, 20 NMOL 2/WK FOR 24 WK BEGINNING 1 WK POST CARCINOGEN DOSE (STUDY DURATION: 25 WK), Route [Carcinogen]: DERMAL, Route [Promoter]: DERMAL, Species: MOUSE, Strain/Sex: NMRI/FEMALE) was “skin: tumor”.
`C=C1/C(=C\C=C2/CCC[C@]3(C)[C@@H]([C@H](C)CCCC(C)(C)O)CC[C@@H]23)C[C@@H](O)C[C@@H]1O`: the outcome reads like this: (Carcinogen: 7,12-DIMETHYLBENZ[A]ANTHRACENE, 57-97-6, Doses [Carcinogen]: 50 NMOL IN 200 µL ACETONE 2/WK FOR 16 WK, Doses [Promoter]: 0, 0.25, 0.5 NMOL IN 200 µL ACETONE APPLIED 1 HR PRIOR TO CARCINOGEN DOSES 2/WK FOR 16 WK (STUDY DURATION: 16 WK), Doses [Promoter]: 0, 0.25, 0.5 NMOL IN 200 µL ACETONE APPLIED 1 HR PRIOR TO CARCINOGEN DOSES 2/WK FOR 16 WK (STUDY DURATION: 16 WK), Route [Carcinogen]: DERMAL, Route [Promoter]: DERMAL, Species: MOUSE, Strain/Sex: CD-1/FEMALE) “skin: tumors”; (Carcinogen: 7,12-DIMETHYLBENZ[A]ANTHRACENE, 57-97-6, Doses [Carcinogen]: 50 NMOL IN 200 µL ACETONE 2/WK FOR 16 WK, Doses [Promoter]: 0, 0.25 NMOL IN 200 µL ACETONE APPLIED 1 HR PRIOR TO AND 24 HR POST CARCINOGEN DOSES 2/WK FOR 16 WK (STUDY DURATION: 16, Route [Carcinogen]: DERMAL, Route [Promoter]: DERMAL, Species: MOUSE, Strain/Sex: CD-1/FEMALE) “skin: tumors”; (Carcinogen: 7,12-DIMETHYLBENZ[A]ANTHRACENE, 57-97-6, Doses [Carcinogen]: 50 NMOL IN 200 µL ACETONE 2/WK FOR 16 WK, Doses [Promoter]: 0, 0.5 NMOL IN 200 µL ACETONE APPLIED 24 HR POST CARCINOGEN DOSES 2/WK FOR 16 WK (STUDY DURATION: 16 WK), Route [Carcinogen]: DERMAL, Route [Promoter]: DERMAL, Species: MOUSE, Strain/Sex: CD-1/FEMALE) “skin: tumors”; (Carcinogen: N-METHYL-N'-NITRO-N-NITROSOGUANADINE, 70-25-7, Doses [Carcinogen]: 150 MG/L IN DRINKING WATER, Doses [Promoter]: 0, 2.5, 5 MG/KG IN DIET FOR DURATION OF STUDY BEGINNING 4 WK POST CARCINOGEN TREATMENT (STUDY DURATION: 32 WK), Doses [Promoter]: 0, 2.5, 5 MG/KG IN DIET FOR DURATION OF STUDY BEGINNING 4 WK POST CARCINOGEN TREATMENT (STUDY DURATION: 32 WK), Route [Carcinogen]: ORAL, Route [Promoter]: ORAL, Species: RAT, Strain/Sex: WISTAR/MALE) “glandular stomach: adenocarcinoma”.
As to `CC(=O)Oc1ccccc1C(=O)O`, the outcome (Carcinogen: N-(4-(5-NITRO-2-FURYL)-2-THIAZOLYL)FORMAMIDE, 24554-26-5, Doses [Carcinogen]: 0.2% IN DIET FOR 12 WK (TOTAL DOSE: 2.7 G), Doses [Promoter]: 0.5% IN DIET (TOTAL DOSE: 45.9 G) BEGINNING 2 D PRIOR TO SIMULTANEOUS ADMINISTRATION WITH CARCINOGEN FOR 12 WK THEN CONT, Route [Carcinogen]: ORAL, Route [Promoter]: ORAL, Species: RAT, Strain/Sex: F344/MALE) is given as “urinary bladder: transitional cell carcinoma” and the outcome (Carcinogen: N-(4-(5-NITRO-2-FURYL)-2-THIAZOLYL)FORMAMIDE, 24554-26-5, Doses [Carcinogen]: 0.2% IN DIET FOR 12 WK (TOTAL DOSE: 3 G), Doses [Promoter]: 0.5% IN DIET (TOTAL DOSE: 39.9 G) BEGINNING 7 D POST LAST CARCINOGEN DOSE AND CONTINUING FOR DURATION OF STUDY (STUDY DU, Route [Carcinogen]: ORAL, Route [Promoter]: ORAL, Species: RAT, Strain/Sex: F344/MALE) is listed as “urinary bladder: transitional cell carcinoma”.
In the case of `CC(=O)OCC(CO)OC(C)=O` (centres undefined), the outcome by setting is: (Carcinogen: 4-Nitroquinoline 1-oxide, 56-57-5, Doses [Carcinogen]: 10 ppm in drinking water from wks 0-10, study duration 35 wk, Doses [Promoter]: 0, 2.75%, 5.5%, 11% in diet from wks 11-35, study duration 35 wks, Doses [Promoter]: 0, 2.75%, 5.5%, 11% in diet from wks 11-35, study duration 35 wks, Route [Carcinogen]: Oral, Route [Promoter]: Oral, Species: Rat, Strain/Sex: Sprague-Dawley/Male (30/Group)) “tongue: squamous cell papillomas and carcinomas; oral cavity: squamous cell papi”; (Carcinogen: 7,12-Dimethylbenz(a)anthracene, 57-97-6, Doses [Carcinogen]: 100 ug in 100 ul acetone once at 6 wk of age, Doses [Promoter]: 0, 12, 30, 75 mg, 5 d/wk beginning 1 wk after carcinogen administration for 35 wk, study duration 36 wk, Route [Carcinogen]: Dermal, Route [Promoter]: Dermal, Species: Mouse, Strain/Sex: ICR/Female) “skin: papillomas”; (Carcinogen: 7,12-Dimethylbenz(a)anthracene, 57-97-6, Doses [Carcinogen]: 100 ug in 100 ul acetone once at 6 wk of age, Doses [Promoter]: 0, 30, 75 mg, twice daily, 5 d/wk beginning 1 wk after carcinogen administration for 35 wk, study duration 36 wk, Route [Carcinogen]: Dermal, Route [Promoter]: Dermal, Species: Mouse, Strain/Sex: ICR/Female) “skin: papillomas and squamous cell carcinomas”.
Regarding `CCCCCCCCCCCCCC(=O)O[C@@]12C[C@@H](C)[C@@]3(O)[C@@H](C=C(CO)C[C@]4(O)C(=O)C(C)=C[C@@H]34)[C@@H]1C2(C)C`, the outcome (Carcinogen: 7,12-DIMETHYLBENZ[A]ANTHRACENE, 57-97-6, Doses [Carcinogen]: 100 NMOL ONCE, Doses [Promoter]: 0, 80 NMOL 2/WK FOR 42 WK (STUDY DURATION: 42 WK), Route [Carcinogen]: DERMAL, Route [Promoter]: DERMAL, Species: MOUSE, Strain/Sex: NMRI) is given as “skin: tumor”.
